# Like-named read-outs stand apart in the source and are kept apart here.
# Tests used:
# [1] = molecular target: T1, human cloned 5-HT2A receptor, expressed in L929 cells (Homo sapiens, UniProt P28223); assay: In vitro radioligand binding affinity for 5-HT2A receptor ([125I]R91150)
# T1 construct: expressed in transfected cells; host or cells: L929 cells
# Experimental: The interaction of the compounds of Formula (I) with 5-HT2A and 5-HT2C receptors was assessed in in vitro radioligand binding experiments. In general, a low concentration of a radioligand with a high binding affinity for the receptor is incubated with a sample of a tissue preparation enriched in a particular receptor (1 to 5 mg tissue) in a buffered medium (0.2 to 5 ml). During the incubation, the radioligands bind to the receptor. When equilibrium of binding is reached, the receptor bound radioactivity is separated from the non-bound radioactivity, and the receptor bound activity is counted. The interaction of the test compounds with the receptors is assessed in competition binding experiments. Various concentrations of the test compound are added to the incubation mixture containing the tissue preparation and the radioligand. Binding of the radioligand will be inhibited by the test compound in proportion to its binding affinity and its concentration. The affinities of the compounds for the 5-HT2 receptors were measured by means of radioligand binding studies conducted with: (a) human cloned 5-HT2A receptor, expressed in L929 cells using [^125I]R91150 as radioligand and (b) human cloned 5-HT2C receptor, expressed in CHO cells using [^3H]mesulergine as radioligand.
# [2] = molecular target: T2, human cloned 5-HT2C receptor, expressed in CHO cells (Homo sapiens, UniProt P28335); assay: In vitro radioligand binding affinity for 5-HT2C receptor ([3H]mesulergine); settings: human cloned 5-HT2C receptor in CHO cells, [3H]mesulergine; read-out: h-5HT2C (converted)
# T2 construct: expressed in transfected cells; host or cells: CHO cells
# T2 sequence (P28335 33-458): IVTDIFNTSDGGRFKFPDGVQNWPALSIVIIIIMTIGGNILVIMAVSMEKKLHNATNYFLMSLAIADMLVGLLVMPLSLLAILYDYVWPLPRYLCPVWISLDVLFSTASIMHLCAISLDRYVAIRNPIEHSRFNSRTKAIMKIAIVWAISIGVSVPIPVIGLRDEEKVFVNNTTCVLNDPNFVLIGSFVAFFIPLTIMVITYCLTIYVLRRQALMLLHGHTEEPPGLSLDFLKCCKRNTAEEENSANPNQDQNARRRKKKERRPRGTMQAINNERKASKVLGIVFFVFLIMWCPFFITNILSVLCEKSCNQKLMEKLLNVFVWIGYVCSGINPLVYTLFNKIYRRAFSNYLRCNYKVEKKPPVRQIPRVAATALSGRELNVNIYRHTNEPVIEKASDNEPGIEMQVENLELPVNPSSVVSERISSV
# Experimental: The interaction of the compounds of Formula (I) with 5-HT2A and 5-HT2C receptors was assessed in in vitro radioligand binding experiments. […] During the incubation, the radioligands bind to the receptor. When equilibrium of binding is reached, the receptor bound radioactivity is separated from the non-bound radioactivity, and the receptor bound activity is counted. The interaction of the test compounds with the receptors is assessed in competition binding experiments. Various concentrations of the test compound are added to the incubation mixture containing the tissue preparation and the radioligand. Binding of the radioligand will be inhibited by the test compound in proportion to its binding affinity and its concentration.
# [3] = molecular target: T3, human Dopamine D2L receptor (Homo sapiens, UniProt P14416); assay: In vitro binding affinity for human D2L receptor ([3H]Spiperone); settings: human D2L receptor-transfected CHO cell membranes, [3H]Spiperone; read-out: h-D2L (converted)
# T3 construct: expressed in transfected cells; host or cells: CHO cells (frozen membranes)
# Experimental: Frozen membranes of human Dopamine D2L receptor-transfected CHO cells were thawed, briefly homogenised using an Ultra-Turrax T25 homogeniser and diluted in Tris-HCl assay buffer containing NaCl, CaCl2, MgCl2, KCl (50, 120, 2, 1, and 5 mM respectively, adjusted to pH 7.7 with HCl) to an appropriate protein concentration optimised for specific and non-specific binding. Radioligand [^3H]Spiperone (NEN, specific activity ˜70 Ci/mmol) was diluted in assay buffer at a concentration of 2 nmol/L. Prepared radioligand (50 μl), along with 50 μl of either the 10% DMSO control, Butaclamol (10-6 mol/l final concentration), or compound of interest, was then incubated (30 min, 37° C.) with 400 μl of the prepared membrane solution. Membrane-bound activity was filtered through a Packard Filtermate harvester onto GF/B Unifilterplates and washed with ice-cold Tris-HCl buffer (50 mM; pH 7.7; 6×0.5 ml). Filters were allowed to dry before adding scintillation fluid and counting in a Topcount scintillation counter. Percentage specific bound and competition binding curves were calculated using S-Plus software (Insightful).
# NET = molecular target: T4, NET (Rattus norvegicus, UniProt Q9WTR4); assay: In vitro determination of NET reuptake inhibition ([3H]Nixosetine binding, rat brain cortex membranes)
# T4 construct: Cortex from rat brain was collected and homogenised; from tissue; host or cells: rat brain cortex membranes
# Experimental: Cortex from rat brain was collected and homogenised using an Ultra-Turrax T25 and a Dual homogeniser in ice-cold homogenising buffer containing Tris, NaCl and KCl (50 mM, 120 mM and 5 mM, respectively, pH 7.4) prior to dilution to an appropriate protein concentration optimised for specific and non-specific binding. […] Membrane-bound activity was detected by filtration through a Packard Filtermate harvester onto GF/B Unifilterplates, washed with ice-cold Tris-HCl buffer, containing NaCl and KCl (50 mM, 120 mM and 4 mM; pH 7.4; 6×0.5 ml). Filters were allowed to dry for 24 h before adding scintillation fluid. Scintillation fluid was allowed to saturate filters for 24 h before counting in a Topcount scintillation counter. Percentage specific bound and competition binding curves were calculated using S-Plus software (Insightful).
# [4] = human cloned 5-HT2A receptor in L929 cells, [125I]R91150, read-out: h-5HT2A (converted)
# T3 sequence (P14416 whole entry): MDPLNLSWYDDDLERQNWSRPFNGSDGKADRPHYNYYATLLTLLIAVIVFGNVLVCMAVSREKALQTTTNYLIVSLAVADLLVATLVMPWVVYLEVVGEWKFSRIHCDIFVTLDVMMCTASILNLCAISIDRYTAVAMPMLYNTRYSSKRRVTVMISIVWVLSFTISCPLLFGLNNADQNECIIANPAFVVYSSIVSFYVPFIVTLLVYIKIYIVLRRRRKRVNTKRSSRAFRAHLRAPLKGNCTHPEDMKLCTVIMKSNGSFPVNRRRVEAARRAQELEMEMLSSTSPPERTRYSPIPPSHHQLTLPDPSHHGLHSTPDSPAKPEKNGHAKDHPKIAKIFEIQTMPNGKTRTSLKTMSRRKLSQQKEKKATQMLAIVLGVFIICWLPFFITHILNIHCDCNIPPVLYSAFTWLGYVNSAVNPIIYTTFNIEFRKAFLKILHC
# T4 sequence (Q9WTR4 1-597): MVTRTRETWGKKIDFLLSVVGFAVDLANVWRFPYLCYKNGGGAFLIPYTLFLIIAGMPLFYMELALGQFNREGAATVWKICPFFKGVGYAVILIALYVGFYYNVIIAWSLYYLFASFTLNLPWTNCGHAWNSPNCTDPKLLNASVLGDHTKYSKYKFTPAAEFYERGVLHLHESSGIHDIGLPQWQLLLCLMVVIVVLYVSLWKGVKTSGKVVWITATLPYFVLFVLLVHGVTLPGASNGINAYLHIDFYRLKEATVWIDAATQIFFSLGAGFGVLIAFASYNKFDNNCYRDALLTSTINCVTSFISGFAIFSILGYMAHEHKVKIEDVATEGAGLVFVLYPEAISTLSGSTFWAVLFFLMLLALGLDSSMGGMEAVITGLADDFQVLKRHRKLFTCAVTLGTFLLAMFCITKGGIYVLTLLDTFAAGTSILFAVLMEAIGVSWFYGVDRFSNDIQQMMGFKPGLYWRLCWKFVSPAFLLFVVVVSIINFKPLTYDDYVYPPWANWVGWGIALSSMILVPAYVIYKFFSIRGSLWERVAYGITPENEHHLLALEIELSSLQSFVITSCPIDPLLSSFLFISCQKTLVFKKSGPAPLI
# T1 sequence (P28223 whole entry): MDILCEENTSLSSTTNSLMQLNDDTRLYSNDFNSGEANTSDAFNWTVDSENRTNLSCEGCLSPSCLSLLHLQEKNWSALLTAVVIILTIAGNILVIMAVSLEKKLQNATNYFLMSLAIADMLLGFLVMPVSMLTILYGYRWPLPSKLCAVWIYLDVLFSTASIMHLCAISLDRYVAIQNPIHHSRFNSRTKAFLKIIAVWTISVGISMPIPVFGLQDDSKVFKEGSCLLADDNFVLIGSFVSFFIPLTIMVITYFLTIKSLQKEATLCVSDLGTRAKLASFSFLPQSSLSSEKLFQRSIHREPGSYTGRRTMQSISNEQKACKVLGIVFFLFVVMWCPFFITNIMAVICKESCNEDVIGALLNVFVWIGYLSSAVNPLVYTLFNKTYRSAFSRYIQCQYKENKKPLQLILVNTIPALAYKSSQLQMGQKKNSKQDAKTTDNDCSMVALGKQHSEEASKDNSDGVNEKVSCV
compound,measurement,setting,value
"Fc1ccc2c(c1)[C@@H]1[C@H](C[C@@H]3CNC(=S)N31)c1ccccc1C2 [compound 8, (4aS,13bR,14aR)-6-fluoro-1,4a,9,13b,14,14a-hexahydrodibenzo[3 ′,4′:6′,7′]cyclohepta-[1′,2′:4,5]pyrrolo[1,2-c]imidazole-3(2H)-thione]",IC50,[1],85.1 nM
same,IC50,[2],251 nM
same,IC50,[3],> 10000 nM
same,NET Reuptake Inhibition,NET,5.66
same,melting point,,150 to 151 °C
"N[C@@H]1CO[C@H]2c3cc(F)ccc3Cc3ccccc3[C@H]2C1 [compound 30, (3S,4aR,13bR)-12-fluoro-2,3,4,4a,9,13b-hexahydrodibenzo[3,4:6,7]cyclohepta[1,2-b]pyran-3-amine]",IC50,[1]; [4],269 nM
same,IC50,[2],145 nM
same,IC50,[3],> 1000 nM
same,IC50,NET,302 nM
same,melting point,,74 to 76 °C
"O[C@H]1CO[C@H]2c3cc(F)ccc3Cc3ccccc3[C@H]2C1 [compound 29, (3R,4aR,13bR)-12-fluoro-2,3,4,4a,9,13b-hexahydrodibenzo[3,4:6,7]cyclohepta[1,2-b]-pyran-3-ol]",melting point,,59 to 61 °C
"CN(C)C[C@H]1C[C@@H]2c3ccccc3Cc3ccc(F)cc3[C@H]2N1CCO [compound 39, 2-((2R,3aR,12bS)-2-[(dimethylamino)methyl]-11-fluoro-3,3a,8,12b-tetrahydrodibenzo-[3,4:6,7]cyclohepta[1,2-b]pyrrol-1(2H)-yl)ethanol]",IC50,[1]; [4],87.1 nM
same,IC50,[2],46.8 nM
same,IC50,[3],> 1000 nM
same,IC50,NET,126 nM
same,melting point,,88 to 90 °C
"O=C1CO[C@H]2c3cc(F)ccc3Cc3ccccc3[C@H]2C1 [compound 31, (4aR,13bR)-12-fluoro-4,4a,9,13b-tetrahydrodibenzo[3,4:6,7]cyclohepta[1,2-b]pyran-3(2H)-one]",melting point,,146 to 148 °C
"CNC1CO[C@H]2c3cc(F)ccc3Cc3ccccc3[C@H]2C1 (stereo in doubt) [compound 33, (3R,4aR,13bR)-12-fluoro-N-methyl-2,3,4,4a,9,13b-hexahydrodibenzo[3,4:6,7]cyclo-hepta[1,2-b]pyran-3-amine]",melting point,,55 to 56 °C
"CN(C)[C@@H]1CO[C@H]2c3cc(F)ccc3Cc3ccccc3[C@H]2C1 [compound 32, (3S,4aR,13bR)-12-fluoro-N,N-dimethyl-2,3,4,4a,9,13b-hexahydrodibenzo[3,4:6,7]-cyclohepta[1,2-b]pyran-3-amine]",IC50,[1]; [4],676 nM
same,IC50,[2],132 nM
same,IC50,[3],> 1000 nM
same,IC50,NET,19.5 nM
same,melting point,,58 to 59 °C
"COCC(=O)N1[C@@H](CN(C)C)C[C@@H]2c3ccccc3Cc3ccc(F)cc3[C@H]21 [compound 10, [(2R,3aR,12bS)-11-fluoro-1-(methoxyacetyl)-1,2,3,3a,8,12b-hexahydrodibenzo[3 ,4:6,7]cyclohepta[1,2-b]pyrrol-2-yl]-N,N-dimethylmethanamine]",IC50,[1]; [4],692 nM
same,IC50,[2],427 nM
same,IC50,[3],> 1000 nM
same,IC50,NET,4790 nM
